Experimental findings from the supplement of paper PMC12137928 are described below.

SMILES strings stand for the structures. Counter-ions that a name gives are not always drawn.

The subject of the test is HCT116. The settings on record: 72 h. In short, it runs like this: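 HCT116 cells were seeded at 250 per well in 1536-well plates with 5 h allowed for attachment. CellTiter-Glo luminescence was normalized against vehicle (0%) and positive control (-100%) before pattern correction. The IC50 and maximal efficacy figures derive from four-parameter Hill fits.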

Consider `COC[C@H]1C[C@@H](c2nc(-c3ccc4c(c3)COc3cc5c(ccc6nc([C@@H]7CC[C@H](C)N7C(=O)[C@@H](NC(=O)OC)C(C)C)[nH]c65)cc3-4)c[nH]2)N(C(=O)[C@H](NC(=O)OC)c2ccccc2)C1` [Velpatasvir], for which the IC50 cell viability is over 45.8 µM (ICRF193 0 nM) and over 45.8 µM (ICRF193 200 nM).

`CCCCCCCCCCCCOCCO` [2-(Dodecyloxy)ethanol] yielded an IC50 cell viability (ICRF193 0 nM) of over 45.8 µM and an IC50 cell viability (ICRF193 200 nM) of over 45.8 µM.

Take `CC(=O)Nc1ccc(C(=O)O)cc1` [4-Acetamidobenzoic acid]: the IC50 cell viability (ICRF193 0 nM) is over 45.8 µM and the IC50 cell viability (ICRF193 200 nM) was over 45.8 µM.

With `O=NN(CCCl)C(=O)NCCCl` [Carmustine], the IC50 cell viability is over 45.8 µM (ICRF193 0 nM) and over 45.8 µM (ICRF193 200 nM).

As for `NS(=O)(=O)c1cc(Cl)c(Cl)c(S(N)(=O)=O)c1` [Diclofenamide], the IC50 cell viability reads like this: (ICRF193 0 nM) over 45.8 µM; (ICRF193 200 nM) over 45.8 µM.

Regarding `CNC(C)CC1CCCCC1` (stereo not drawn) [Propylhexedrine (hydrochloride)], the IC50 cell viability is over 45.8 µM (ICRF193 0 nM) and over 45.8 µM (ICRF193 200 nM).

On to `COP(=O)(OC)C(O)C(Cl)(Cl)Cl` (stereo not drawn) [Trichlorfon], for which the IC50 cell viability was over 45.8 µM (ICRF193 0 nM) and over 45.8 µM (ICRF193 200 nM).

The compound `Cc1cc(C(C)(C)C)cc(C)c1CC1=NCCN1` [Xylometazoline hydrochloride] had an IC50 cell viability (ICRF193 0 nM) of over 45.8 µM and an IC50 cell viability (ICRF193 200 nM) of over 45.8 µM.

With `C[C@@H]1CC2=CC(=O)CC[C@@H]2[C@H]2CC[C@@]3(C)[C@@H](CC[C@]3(C)O)[C@@H]21` [Mibolerone], the IC50 cell viability (ICRF193 0 nM) was over 45.8 µM and the IC50 cell viability (ICRF193 200 nM) is over 45.8 µM.

Take `C[C@H]1C[C@@H]2[C@H]([C@@H](O)C[C@@]3(C)[C@H]2CC[C@]3(O)C(=O)COC(=O)CCC(=O)O)[C@@]2(C)C=CC(=O)C=C12`: the IC50 cell viability (ICRF193 0 nM) was over 45.8 µM and the IC50 cell viability (ICRF193 200 nM) was over 45.8 µM.

As to `C=C1c2cccc(O)c2C(=O)C2=C(O)[C@]3(O)C(=O)C(C(N)=O)=C(O)[C@@H](N(C)C)[C@@H]3[C@@H](O)[C@H]12` [Methacycline hydrochloride], the IC50 cell viability runs as follows: (ICRF193 0 nM) over 45.8 µM; (ICRF193 200 nM) over 45.8 µM.

`COc1ccc(CN(CCN(C)C)c2ncccn2)cc1` [Thonzylamine hydrochloride]: the IC50 cell viability runs as follows: (ICRF193 0 nM) over 45.8 µM; (ICRF193 200 nM) over 45.8 µM.

With `CC[C@@H](CO)NC(=O)[C@@H]1C=C2c3cccc4[nH]cc(c34)C[C@H]2N(C)C1` [Methergine], the IC50 cell viability (ICRF193 0 nM) was over 45.8 µM and the IC50 cell viability (ICRF193 200 nM) was over 45.8 µM.

`C[N+]1([O-])[C@@H]2CC(OC(=O)[C@H](CO)c3ccccc3)C[C@H]1[C@@H]1O[C@@H]12` (single isomer, unassigned; (-)) [(-)-Scopolamine N-oxide]: the IC50 cell viability reads like this: (ICRF193 0 nM) over 45.8 µM; (ICRF193 200 nM) over 45.8 µM.

Consider `CCn1cc(C(=O)O)c(=O)c2cc(F)c(N3CCNC(C)C3)c(F)c21` (stereo not drawn) [Lomefloxacin hydrochloride], for which the IC50 cell viability is over 45.8 µM (ICRF193 0 nM) and over 45.8 µM (ICRF193 200 nM).

With `O[C@@H]([C@H](O)[C@H](O)CBr)[C@H](O)CBr` [Dibromomannitol], the IC50 cell viability was over 45.8 µM (ICRF193 0 nM) and over 45.8 µM (ICRF193 200 nM).

`CCN(CC)CCNC(=O)c1ccc(N)cc1` [Procainamide]: the IC50 cell viability was over 45.8 µM (ICRF193 0 nM) and over 45.8 µM (ICRF193 200 nM).

For `CC[C@H]1OC(=O)[C@H](C)[C@@H](O[C@H]2C[C@@](C)(OC)[C@@H](O)[C@H](C)O2)[C@H](C)[C@@H](O[C@@H]2O[C@H](C)C[C@H](N(C)C)[C@H]2O)[C@](C)(OC)C[C@@H](C)C(=O)[C@H](C)[C@@H](O)[C@]1(C)O` [Clarithromycin], the IC50 cell viability was over 45.8 µM (ICRF193 0 nM) and over 45.8 µM (ICRF193 200 nM).

In the case of `C[C@]12CCC(=O)C[C@@H]1CC[C@@H]1[C@@H]2CC[C@]2(C)C=CC[C@@H]12` [Androstenone], the IC50 cell viability reads like this: (ICRF193 0 nM) over 45.8 µM; (ICRF193 200 nM) over 45.8 µM.

`N#Cc1c(N(CC(=O)O)CC(=O)O)sc(C(=O)O)c1CC(=O)O` [Strontium Ranelate] showed an IC50 cell viability (ICRF193 0 nM) of over 45.8 µM and an IC50 cell viability (ICRF193 200 nM) of over 45.8 µM.

The compound `NC(=O)c1cc[n+](CC2=C(C(=O)[O-])N3C(=O)[C@@H](NC(=O)[C@@H](c4ccccc4)S(=O)(=O)O)[C@H]3SC2)cc1` [Cefsulodin Sodium Salt] gave an IC50 cell viability (ICRF193 0 nM) of over 45.8 µM and an IC50 cell viability (ICRF193 200 nM) of over 45.8 µM.

Consider `CC(C)OC(=O)CCC/C=C\C[C@@H]1[C@@H](CC[C@@H](O)CCc2ccccc2)[C@H](O)C[C@@H]1O` [Latanoprost], for which the IC50 cell viability runs as follows: (ICRF193 0 nM) over 45.8 µM; (ICRF193 200 nM) over 45.8 µM.

Turning to `CC(C)Cc1ccc(CC(=O)O)cc1` [Ibufenac], the IC50 cell viability was over 45.8 µM (ICRF193 0 nM) and over 45.8 µM (ICRF193 200 nM).

`NS(=O)(=O)Cc1noc2ccccc12` [Zonisamide]: the IC50 cell viability (ICRF193 0 nM) was over 45.8 µM and the IC50 cell viability (ICRF193 200 nM) was over 45.8 µM.

In the case of `Clc1ccc(CCCOCCCN2CCCCC2)cc1` [Pitolisant (hydrochloride)], the IC50 cell viability was over 45.8 µM (ICRF193 0 nM) and over 45.8 µM (ICRF193 200 nM).

Turning to `CC(=O)O[C@@H]1C[C@H]2[C@@H]3CCc4cc(OC(=O)c5ccccc5)ccc4[C@H]3CC[C@]2(C)[C@H]1OC(C)=O` [Estriol benzoate diacetate], the IC50 cell viability runs as follows: (ICRF193 0 nM) over 45.8 µM; (ICRF193 200 nM) over 45.8 µM.

Take `CC(C)=CCC/C(C)=C/CC/C(C)=C/CC/C=C(\C)CC/C=C(\C)CCC=C(C)C` [Squalene]: the IC50 cell viability reads like this: (ICRF193 0 nM) over 45.8 µM; (ICRF193 200 nM) over 45.8 µM.

`CCN(CC)CCCN(c1ccccc1)C1Cc2ccccc2C1` [Aprindine hydrochloride]: the IC50 cell viability runs as follows: (ICRF193 0 nM) over 45.8 µM; (ICRF193 200 nM) over 45.8 µM.

`CCCCCCCCCCCCCCCC(=O)OC[C@@H](O)[C@H]1OC[C@H](O)[C@H]1O` [Sorbitan monohexadecanoate]: the IC50 cell viability is, setting by setting: (ICRF193 0 nM) over 45.8 µM; (ICRF193 200 nM) over 45.8 µM.

Regarding `CCC(C)n1ncn(-c2ccc(N3CCN(c4ccc(OCC5COC(Cn6cncn6)(c6ccc(Cl)cc6Cl)O5)cc4)CC3)cc2)c1=O` (stereo not drawn) [Itraconazole], the IC50 cell viability is over 45.8 µM (ICRF193 0 nM) and over 45.8 µM (ICRF193 200 nM).

`C[C@@H](O)[C@H]1C(=O)N2C(C(=O)O)=C(S[C@@H]3CN[C@H](C(=O)Nc4cccc(C(=O)O)c4)C3)[C@H](C)[C@H]12` [Ertapenem] showed an IC50 cell viability (ICRF193 0 nM) of over 45.8 µM and an IC50 cell viability (ICRF193 200 nM) of over 45.8 µM.

With `N=C(N)NCCCC[C@@H]1NC(=O)CCSSC[C@@H](C(N)=O)NC(=O)[C@@H]2CCCN2C(=O)[C@H](Cc2c[nH]c3ccccc23)NC(=O)[C@H](CC(=O)O)NC(=O)CNC1=O` [Eptifibatide], the IC50 cell viability by setting is: (ICRF193 0 nM) over 45.8 µM; (ICRF193 200 nM) over 45.8 µM.

Consider `C[C@]12CC[C@H](O)CC1=CC[C@@H]1[C@@H]2CC[C@]2(C)C(=O)CC[C@@H]12` [Dehydroepiandrosterone], for which the IC50 cell viability reads like this: (ICRF193 0 nM) over 45.8 µM; (ICRF193 200 nM) over 45.8 µM.

With `CC(=O)Oc1ccccc1C(=O)O` [Aspirin], the IC50 cell viability is over 45.8 µM (ICRF193 0 nM) and over 45.8 µM (ICRF193 200 nM).

On to `Cc1cc(=O)oc2cc(O)ccc12` [4-Methylumbelliferone], for which the IC50 cell viability is over 45.8 µM (ICRF193 0 nM) and over 45.8 µM (ICRF193 200 nM).

For `COc1ccc(C2CNC(=O)C2)cc1OC1CCCC1` (stereo not drawn) [Rolipram], the IC50 cell viability runs as follows: (ICRF193 0 nM) over 45.8 µM; (ICRF193 200 nM) over 45.8 µM.

Regarding `CCOC(=O)c1ccc(OCCN2C[C@H](O)[C@@H](O)[C@H](O)[C@H]2CO)cc1` [Emiglitate], the IC50 cell viability is, setting by setting: (ICRF193 0 nM) over 45.8 µM; (ICRF193 200 nM) over 45.8 µM.

In the case of `CN(CCCN1c2ccccc2CCc2ccccc21)CC(=O)c1ccc(Cl)cc1` [Lofepramine hydrochloride], the IC50 cell viability runs as follows: (ICRF193 0 nM) over 45.8 µM; (ICRF193 200 nM) over 45.8 µM.

On to `NCCCC[C@H](NC(=O)[C@@H]1CCCN1C(=O)[C@@H]1CSSC[C@H](NC(=O)CNC(=O)CNC(=O)CN)C(=O)N[C@@H](Cc2ccc(O)cc2)C(=O)N[C@@H](Cc2ccccc2)C(=O)N[C@@H](CCC(N)=O)C(=O)N[C@@H](CC(N)=O)C(=O)N1)C(=O)NCC(N)=O` [Terlipressin], for which the IC50 cell viability is over 45.8 µM (ICRF193 0 nM) and over 45.8 µM (ICRF193 200 nM).

Turning to `CCCc1nc(C)c2c(=O)nc(-c3cc(S(=O)(=O)N4CCN(CC)CC4)ccc3OCC)[nH]n12` [Vardenafil], the IC50 cell viability (ICRF193 0 nM) is over 45.8 µM and the IC50 cell viability (ICRF193 200 nM) is over 45.8 µM.

As for `CCOC(=O)[C@H](CCc1ccccc1)N[C@@H](C)C(=O)N1[C@H](C(=O)O)C[C@H]2CCCC[C@@H]21` [TRANDOLAPRIL], the IC50 cell viability was over 45.8 µM (ICRF193 0 nM) and over 45.8 µM (ICRF193 200 nM).

In the case of `CC1(C)S[C@@H]2[C@H](N3C(=O)[C@@H](c4ccccc4)NC3(C)C)C(=O)N2[C@H]1C(=O)O` [HETACILLIN POTASSIUM], the IC50 cell viability by setting is: (ICRF193 0 nM) over 45.8 µM; (ICRF193 200 nM) over 45.8 µM.

`C[C@@H]1C[C@H]2[C@@H]3CCC4=CC(=O)C=C[C@]4(C)[C@@]3(F)[C@@H](O)C[C@]2(C)[C@H]1C(=O)CO` [Desoximetasone]: the IC50 cell viability (ICRF193 0 nM) was over 45.8 µM and the IC50 cell viability (ICRF193 200 nM) was over 45.8 µM.

As for `OC[C@@H]1NC[C@@H](O)[C@H](O)[C@H]1O` [deoxynorjrimycin(1)], the IC50 cell viability (ICRF193 0 nM) was over 45.8 µM and the IC50 cell viability (ICRF193 200 nM) is over 45.8 µM.

In the case of `CN(C)CCC(c1ccccc1)c1ccccn1` (stereo not drawn) [Pheniramine maleate], the IC50 cell viability runs as follows: (ICRF193 0 nM) over 45.8 µM; (ICRF193 200 nM) over 45.8 µM.

With `c1ccc(CC2=NCCN2)cc1` [Tolazoline hydrochloride], the IC50 cell viability was over 45.8 µM (ICRF193 0 nM) and over 45.8 µM (ICRF193 200 nM).

With `COc1ccccc1OCC(O)CN1CCN(CC(=O)Nc2c(C)cccc2C)CC1` (stereo not drawn) [Ranolazine], the IC50 cell viability is over 45.8 µM (ICRF193 0 nM) and over 45.8 µM (ICRF193 200 nM).

Take `NC(=O)CCCCC1CCSS1` (stereo not drawn) [alpha-Lipoic acid amide]: the IC50 cell viability runs as follows: (ICRF193 0 nM) over 45.8 µM; (ICRF193 200 nM) over 45.8 µM.

As to `CC(=O)Oc1ccc(C(=C2CCCCC2)c2ccc(OC(C)=O)cc2)cc1` [Cyclofenil], the IC50 cell viability was over 45.8 µM (ICRF193 0 nM) and over 45.8 µM (ICRF193 200 nM).
